In the assay the test system is tobacco budworm (Heliothis virescens [Fabricius]). Description: diet test: insect growth inhibition and mortality, tobacco budworm larvae, 5-day exposure. The format is in vivo. As to conditions: second instar larvae. The protocol:
The 5-deazapteridine of the present invention were incorporated into an artificial diet for evaluation of insecticidal activity against the tobacco budworm (Heliothis virescens [Fabricius]).
Stock solutions of test chemical in dimethyl sulfoxide were prepared for each rate of application. The rates of application, expressed as the negative log of the molar concentration, and the corresponding concentrations of the stock solution prepared for each rate are shown below:
One hundred microliters of each of the stock solutions was manually stirred into 50 mL of a molten (65°-70° C.) wheat germ-based artificial diet. The 50 mL of molten diet containing the test chemical was poured evenly into twenty wells in the outer four rows of a twenty-five well, five row plastic tray. Each well in the tray was about 1 cm in depth, with an opening of 3 cm by 4 cm at the lip. Molten diet containing only dimethyl sulfoxide at the levels used in the test chemical-treated diet was poured into the five wells in the third row of the tray. Each tray therefore contained one test chemical at a single rate of application, together with an untreated control.
Single second instar tobacco budworm larvae were placed in each well. The larvae were selected at a stage of growth at which they uniformly weigh about 5 mg each. Upon completion of infestation, a sheet of clear plastic was heat-sealed over the top of the tray using a common household flat iron. The trays were held at 25° C. at 60% relative humidity for five days in a growth chamber. Lighting was set at 14 hours of light and 10 hours of darkness.
After the 5-day exposure period, mortality counts were taken, and the surviving insects were weighed. From the weights of the surviving insects that fed on the treated diet as compared to those insects that fed on the untreated diet, the percent growth inhibition caused by each test chemical was determined. […] Where possible, the negative log of the concentration of the test chemical that provided 50% mortality (pLC50) was also determined.
The compounds of the present invention were tested in the diet test as insect growth inhibitors against the larvae of tobacco budworm (above).

Turning to `COc1ccc(OC)c(Cc2cnc3nc(N)nc(N)c3c2C)c1` [Compound 90, 2,4-diamino-5-methyl-6-(2,5-dimethoxyphenylmethyl)-5-deazapteridine], the IC50 (Heliothis virescens, 120 h, artificial diet, linear regression, read-out: pI50: negative log of the concentration that provides 50% growth inhibition (converted)) is 1000 nM. Besides, the “Percent Growth Inhibition” value is, setting by setting: (rate of application 4 (negative log of molar concentration in diet)) 95%; (rate of application 5 (negative log of molar concentration in diet)) 87%; (rate of application 6 (negative log of molar concentration in diet)) 41%; (rate of application 7 (negative log of molar concentration in diet)) 26%.

Values taken from patent US5710157A, “2,4-diamino-5,6-disubstituted-and 5,6,7-trisubstituted-5-deazapteridines as insecticides” (FMC Corporation, priority 1996, dated 1998).
